# Entries after “also recorded” stand apart in the source; their conditions may differ. Numbered stars: 1 amine (or outer) side, 2 acyl side, 3 side chain; on linkers, the order of the positions; unused ones are H or OH. Peptide text beside a SMILES is read from it. CO = O=C([*:1])[*:2]
# Biological target: T1, thermopsin, thermostable acid protease purified from Sulfolobus acidocaldarius culture medium (Sulfolobus acidocaldarius, UniProt P17118)
# T1 construct: The purification of thermopsin, therefore, was carried out using culture media as starting material; endogenous in cells; host or cells: Sulfolobus acidocaldarius (natural producer); enzyme purified in-house from the culture medium, not recombinant
# T1 sequence (P17118 42-340): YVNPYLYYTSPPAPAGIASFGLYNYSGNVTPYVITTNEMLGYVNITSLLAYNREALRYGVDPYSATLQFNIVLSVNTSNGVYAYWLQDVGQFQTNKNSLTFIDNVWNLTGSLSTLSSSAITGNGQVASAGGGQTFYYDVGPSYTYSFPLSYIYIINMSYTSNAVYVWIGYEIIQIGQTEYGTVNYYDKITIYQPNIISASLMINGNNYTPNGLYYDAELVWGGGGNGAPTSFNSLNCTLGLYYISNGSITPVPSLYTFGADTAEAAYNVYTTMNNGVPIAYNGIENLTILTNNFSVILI
# Experiment: Effects of proteinase inhibitors on thermopsin proteolytic activity (14C-methylated hemoglobin assay)
# Assay type: biochemical
# Details: no concentration stated; see Table II
# Method: Proteolytic activity is routinely assayed using ^14 C-methylated bovine hemoglobin as substrate, as prepared according to the method of Lin, et al., J. Biol. Chem., (1989, in press). The assay mixture, containing 0.51% hemoglobin substrate and thermopsin in 0.1 ml of 0.1M sodium formate, pH 3.2, is placed in an Eppendorf tube. After incubation at 80° C. for a period of time between 5 to 30 min, depending on the level of activity of thermopsin used, an aliquot of 0.1 ml of 10% trichloracetic acid is added to stop the reaction and precipitate the protein. After removal of the precipitate by centrifugation, the radioactivity of an aliquot of the clear supernate is determined in a scintillation counter.
# The effect of various protease inhibitors on the activity of thermopsin was tested.
# Thermopsin is preincubated with the indicated level of inhibitor in 0.1 M
# phosphate buffer, pH 6.0, containing 1 mM EDTA and DTT at 37° C.
# for 5 min. Sodium formate (pH 3.2) and ^14 CHemoglobin is then added
# to a concentration as described above. The enzyme assay is then carried
# out at 80° C. for 15 min. Enzyme activity is expressed as percent
row,Compound,effect of inhibitor on thermopsin activity (in words)
1,"CCCCC(NC(=O)C=[N+]=[N-])C(=O)OC (racemic) [DAN, diazoacetyl-DL-norleucinemethlyester]",not inactivated; also recorded: no effect
2,"CC(C)[C@H](NC(=O)[C@H](CCCNC(=N)N)NC(=O)N[C@@H](Cc1ccccc1)C(=O)O)C(=O)N[C@H](C=O)CCCNC(=N)N [Antipain, antipain] ({Phe-CO}-Arg-Val-Arg-aldehyde)",inhibited; also recorded: significant inhibition
3,CCN1C(=O)C=CC1=O [N-ethylmaleimide],little effect
4,"O=S(=O)(F)Cc1ccccc1 [PMSF, phenylmethylsulfonyl fluoride]",significantly inactivate; also recorded: significant inhibition
5,"Cc1ccc(S(=O)(=O)N[C@@H](CCCCN)C(=O)CCl)cc1 [TLCK, N-p-Tosyl-1-lysine chloromethyl ketone]",much less effective
6,"Cc1ccc(S(=O)(=O)N[C@@H](Cc2ccccc2)C(=O)CCl)cc1 [TPCK, N-Tosyl-L-phenylalanine chloromethyl ketone]",significantly inactivate; also recorded: significant inhibition

# Reference: patent US5215907A, “Thermostable acid protease from sulfolobus acidocaldarius” (Oklahoma Medical Research Foundation, priority 1992, dated 1993)
